Measured values from ChEMBL document CHEMBL5543109, “Novel β-Hairpin Antimicrobial Peptide Containing the β-Turn Sequence of -NG- and the Tryptophan Zippers Facilitate Self-Assembly into Nanofibers, Exhibiting Excellent Antimicrobial Performance” (J Med Chem, 2024).
In brackets after ≈: the same amount, converted by molar mass. Activity calls are given as the source filed them. No cut-off for these calls is given here.

Assays:
Staphylococcus aureus [1] = assay: Induction of morphological change in Staphylococcus aureus assessed as morphological distortion at 2 times MIC incubated for 30 mins by SEM analysis; assay type: functional, organism-based
Staphylococcus aureus [2] = assay: Antibacterial activity against Staphylococcus aureus incubated for 18 hrs in presence of MgCl2 by broth microdilution method; assay type: functional, organism-based
Staphylococcus aureus [3] = assay: Additive antibacterial activity against methicillin resistant Staphylococcus aureus 75 assessed as fractional inhibitory concentration index incubated for 18 hrs in presence of gentamycin by checkerboard assay; assay type: functional
Staphylococcus aureus [4] = assay: Synergistic antibacterial activity against Staphylococcus aureus 794 assessed as fractional inhibitory concentration index incubated for 18 hrs in presence of rifampin by checkerboard assay; assay type: functional
Cell membrane [5] = assay: Induction of outer membrane permeabilization in Escherichia coli at 1/2 MIC measured immediately by NPN-dye based assay; assay type: cell membranes
Cell membrane [6] = assay: Induction of outer membrane permeabilization in Escherichia coli at 4 times MIC measured immediately by NPN-dye based assay; assay type: cell membranes
Pseudomonas aeruginosa [7] = assay: Induction of morphological change in Pseudomonas aeruginosa assessed as bacterial deformation at 2 times MIC incubated for 30 mins by SEM analysis; assay type: functional, organism-based
Pseudomonas aeruginosa [8] = assay: Induction of morphological change in Pseudomonas aeruginosa assessed as pore formation at 2 times MIC incubated for 30 mins by SEM analysis; assay type: functional, organism-based
Staphylococcus aureus [9] = assay: Antibacterial activity against Staphylococcus aureus S125 incubated for 18 hrs by broth microdilution method; assay type: functional
[10] = Acute toxicity in ip dosed mouse by karber method; assay type: organism-based; conditions: in vivo, read-out: LD50
Staphylococcus aureus [11] = assay: Antibacterial activity against Staphylococcus aureus 794 infected in BALB/c mouse skin wound infection model assessed as reduction in wound bacterial load at 1 mg/ml, ip administered at 1 hr interval for total 6 treatment and measured after 1 hr post last dose; assay type: functional, organism-based; conditions: time 7.0 hrs
[12] = Toxicity in BALB/c mouse infected with Staphylococcus aureus 794 assessed as cell necrosis at 1 mg/ml, ip pre-infected with bacteria for 24 hrs followed by compound addition and measured after 13 days in presence of vancomycin by H and E staining based histopathological analysis; assay type: organism-based; conditions: in vivo, 312 h, time 13 day
Staphylococcus aureus [13] = assay: Antibacterial activity against Staphylococcus aureus 794 infected in BALB/c mouse skin wound infection model assessed as wound healing at 1 mg/ml, ip pre-infected with bacteria for 24 hrs followed by compound addition and measured after 13 days post infection; assay type: functional, organism-based; conditions: time 12.0 day
Pseudomonas aeruginosa [14] = assay: Antibacterial activity against Pseudomonas aeruginosa ATCC 27853 incubated for 18 hrs by broth microdilution method; assay type: functional
Staphylococcus aureus [15] = assay: Additive antibacterial activity against methicillin resistant Staphylococcus aureus 113 assessed as fractional inhibitory concentration index incubated for 18 hrs in presence of ciprofloxacin by checkerboard assay; assay type: functional
Escherichia coli [16] = assay: Antibacterial activity against kanamycin resistant Escherichia coli assessed as fractional inhibitory concentration index incubated for 18 hrs in presence of kanamycin by checkerboard assay; assay type: functional
Cell membrane [17] = assay: Induction of cell membrane disruption in Staphylococcus aureus assessed as PI uptake at 4 times MIC incubated for 2 hrs by PI staining based flow cytometry analysis (reference value: 15.9%); assay type: cell membranes
Cell membrane [18] = assay: Induction of cell membrane disruption in Escherichia coli assessed as PI uptake incubated for 2 hrs by PI staining based confocal laser scanning microscopy; assay type: cell membranes
Pseudomonas aeruginosa [19] = assay: Antibacterial activity against Pseudomonas aeruginosa incubated for 18 hrs in presence of KCl by broth microdilution method; assay type: functional, organism-based
[20] = Toxicity in BALB/c mouse infected with Staphylococcus aureus 794 assessed as increase in number of sweat glands at 1 mg/ml, ip pre-infected with bacteria for 24 hrs followed by compound addition and measured after 13 days by H and E staining based histopathological analysis; assay type: organism-based; conditions: in vivo, 312 h, time 13 day
Escherichia coli [21] = assay: Antibacterial activity against kanamycin resistant Escherichia coli assessed as fractional inhibitory concentration index incubated for 18 hrs in presence of streptomycin by checkerboard assay; assay type: functional
Staphylococcus aureus [22] = assay: Synergistic antibacterial activity against Staphylococcus aureus 125 assessed as fractional inhibitory concentration index incubated for 18 hrs in presence of bacitracin by checkerboard assay; assay type: functional
Staphylococcus aureus [23] = assay: Antibacterial activity against rifampicin resistant Staphylococcus aureus incubated for 18 hrs by broth microdilution method; assay type: functional
Staphylococcus aureus [24] = assay: Synergistic antibacterial activity against methicillin resistant Staphylococcus aureus assessed as fractional inhibitory concentration index incubated for 18 hrs in presence of cefotaxime by checkerboard assay; assay type: functional
Staphylococcus aureus [25] = assay: Antibacterial activity against kanamycin resistant Staphylococcus aureus incubated for 18 hrs by broth microdilution method; assay type: functional
[26] = Acute toxicity in mouse assessed as hepatocyte necrosis at 230.5 mg/kg, ip by H and E staining based assay; assay type: organism-based; conditions: hepatocytes
Staphylococcus aureus [27] = assay: Additive antibacterial activity against Staphylococcus aureus 125 assessed as fractional inhibitory concentration index incubated for 18 hrs in presence of gentamycin by checkerboard assay; assay type: functional
Staphylococcus aureus [28] = assay: Additive antibacterial activity against methicillin resistant Staphylococcus aureus 113 assessed as fractional inhibitory concentration index incubated for 18 hrs in presence of streptomycin by checkerboard assay; assay type: functional
Staphylococcus aureus [29] = assay: Antibacterial activity against Staphylococcus aureus at 2 times MIC preincubated for 1 hr with chymotrypsin followed by enzyme inactivation and bacterial addition and measured after 18 hrs; assay type: functional; conditions: time 19 hrs
Escherichia coli [30] = assay: Antibacterial activity against Escherichia coli infected in BALB/c mouse systemic infection model assessed as reduction in kidney bacterial load at 5 to 10 mg/kg, ip measured after 24 hrs; assay type: functional, organism-based; conditions: dose 5-10 mg/kg
Staphylococcus aureus [31] = assay: Antibacterial activity against Staphylococcus aureus 794 infected in BALB/c mouse skin wound infection model assessed as reduction in wound area at 1 mg/ml, ip pre-infected with bacteria for 24 hrs followed by compound addition and measured on day 5; assay type: functional, organism-based; conditions: time 5.0 day
[32] = system: Staphylococcus epidermidis; assay: Antibacterial activity against Staphylococcus epidermidis ATCC 12228 incubated for 18 hrs by broth microdilution method; assay type: functional
Staphylococcus aureus [33] = assay: Additive antibacterial activity against methicillin resistant Staphylococcus aureus 113 assessed as fractional inhibitory concentration index incubated for 18 hrs in presence of cefotaxime by checkerboard assay; assay type: functional
Escherichia coli [34] = assay: Antibacterial activity against Escherichia coli infected in BALB/c mouse systemic infection model assessed as reduction in liver bacterial load at 5 to 10 mg/kg, ip measured after 24 hrs; assay type: functional, organism-based; conditions: dose 5-10 mg/kg
[35] = Acute toxicity in mouse assessed as renal cell necrosis at 230.5 mg/kg, ip by H and E staining based assay; assay type: organism-based; conditions: in vivo
[36] = Acute toxicity in mouse assessed as tissue hemorrhage at 230.5 mg/kg, ip by H and E staining based assay; assay type: organism-based; conditions: in vivo
[37] = Toxicity in BALB/c mouse infected with Staphylococcus aureus 794 assessed as epidermal layer thickness at 1 mg/ml, ip pre-infected with bacteria for 24 hrs followed by compound addition and measured after 13 days by H and E staining based histopathological analysis; assay type: organism-based; conditions: in vivo, 312 h, time 13 day
Staphylococcus aureus [38] = assay: Additive antibacterial activity against methicillin resistant Staphylococcus aureus assessed as fractional inhibitory concentration index incubated for 18 hrs in presence of gentamycin by checkerboard assay; assay type: functional
Staphylococcus aureus [39] = assay: Synergistic antibacterial activity against methicillin resistant Staphylococcus aureus 113 assessed as fractional inhibitory concentration index incubated for 18 hrs in presence of kanamycin by checkerboard assay; assay type: functional
Staphylococcus aureus [40] = assay: Antibacterial activity against Staphylococcus aureus incubated for 18 hrs in presence of FeCl3 by broth microdilution method; assay type: functional, organism-based
Staphylococcus aureus [41] = assay: Synergistic antibacterial activity against methicillin resistant Staphylococcus aureus assessed as fractional inhibitory concentration index incubated for 18 hrs in presence of kanamycin by checkerboard assay; assay type: functional

NCCCC[C@@H](NC(=O)[C@H](N)Cc1c[nH]c2ccccc12)C(=O)N[C@H](Cc1c[nH]c2ccccc12)C(=O)N[C@H](CCCCN)C(=O)N[C@H](Cc1c[nH]c2ccccc12)C(=O)N[C@@H](CC(N)=O)C(=O)NCC(=O)N[C@H](Cc1c[nH]c2ccccc12)C(=O)N[C@H](CCCCN)C(=O)N[C@H](Cc1c[nH]c2ccccc12)C(=O)N[C@H](CCCCN)C(=O)N[C@H](Cc1c[nH]c2ccccc12)C(N)=O
Activity (Staphylococcus aureus [1]): Active | Activity (Staphylococcus aureus [2]): Active | fractional inhibitory concentration index (FICI) (Staphylococcus aureus [3]): 0.625 | fractional inhibitory concentration index (FICI) (Staphylococcus aureus [4]): 0.188 | Activity (Cell membrane [5]): 40% | Activity (Cell membrane [6]): 100% | Activity (Pseudomonas aeruginosa [7]): Active | Activity (Pseudomonas aeruginosa [8]): Active | MIC (Staphylococcus aureus [9]): 8 µM (≈ 14.5 µg/mL) | LD50 [10]: 230 mg/kg | Activity (Staphylococcus aureus [11]): Active | Activity [12]: Toxic | Activity (Staphylococcus aureus [13]): Active | MIC (Pseudomonas aeruginosa [14]): 4 µM (≈ 7.27 µg/mL) | fractional inhibitory concentration index (FICI) (Staphylococcus aureus [15]): 1 | fractional inhibitory concentration index (FICI) (Escherichia coli [16]): 0.188 | Activity (Cell membrane [17]): 95.5% | Activity (Cell membrane [18]): Dose-Dependent Effect | Activity (Pseudomonas aeruginosa [19]): Active | Activity [20]: Toxic | fractional inhibitory concentration index (FICI) (Escherichia coli [21]): 0.188 | fractional inhibitory concentration index (FICI) (Staphylococcus aureus [22]): 0.5 | MIC (Staphylococcus aureus [23]): 8 µM (≈ 14.5 µg/mL) | fractional inhibitory concentration index (FICI) (Staphylococcus aureus [24]): 0.313 | MIC (Staphylococcus aureus [25]): 4 µM (≈ 7.27 µg/mL) | Activity [26]: Toxic | fractional inhibitory concentration index (FICI) (Staphylococcus aureus [27]): 0.563 | fractional inhibitory concentration index (FICI) (Staphylococcus aureus [28]): 0.563 | Activity (Staphylococcus aureus [29]): 100% | Activity (Escherichia coli [30]): Active | Activity (Staphylococcus aureus [31]): Active | MIC [32]: 4 µM (≈ 7.27 µg/mL) | fractional inhibitory concentration index (FICI) (Staphylococcus aureus [33]): 0.563 | Activity (Escherichia coli [34]): Active | Activity [35]: Toxic | Activity [36]: Toxic | Activity [37]: Non-Toxic | fractional inhibitory concentration index (FICI) (Staphylococcus aureus [38]): 0.75 | fractional inhibitory concentration index (FICI) (Staphylococcus aureus [39]): 0.5 | Activity (Staphylococcus aureus [40]): Active | fractional inhibitory concentration index (FICI) (Staphylococcus aureus [41]): 0.313
